Experiment [1] concerns the target T1, recombinant human LTA4 hydrolase (rhLTA4H) (Homo sapiens, UniProt P09960).
T1 construct: made in house; host or cells: Spodoptera frugiperda (Sf-9) cells, baculovirus (pFastBac1)
T1 sequence (P09960 1-611): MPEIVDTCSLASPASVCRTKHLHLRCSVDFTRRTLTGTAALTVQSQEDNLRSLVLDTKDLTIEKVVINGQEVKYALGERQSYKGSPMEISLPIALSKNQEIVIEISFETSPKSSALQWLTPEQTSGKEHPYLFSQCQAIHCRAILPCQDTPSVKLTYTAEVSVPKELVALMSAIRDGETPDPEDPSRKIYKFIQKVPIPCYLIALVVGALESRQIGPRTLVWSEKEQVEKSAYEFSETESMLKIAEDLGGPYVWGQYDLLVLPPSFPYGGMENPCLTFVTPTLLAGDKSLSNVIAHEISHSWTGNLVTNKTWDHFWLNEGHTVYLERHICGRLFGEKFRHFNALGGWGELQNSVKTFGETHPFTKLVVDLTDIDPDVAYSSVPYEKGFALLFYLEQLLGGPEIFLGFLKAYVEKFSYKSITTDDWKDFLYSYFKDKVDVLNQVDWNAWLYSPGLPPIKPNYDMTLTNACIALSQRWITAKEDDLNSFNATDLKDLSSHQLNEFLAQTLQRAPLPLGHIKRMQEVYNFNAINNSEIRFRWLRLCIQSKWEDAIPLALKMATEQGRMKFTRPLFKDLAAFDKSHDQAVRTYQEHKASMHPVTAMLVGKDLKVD
The experiment in a line: Recombinant human LTA4 hydrolase assay for LTA4 hydrolase inhibitor activity. The format is biochemical. The settings on record: rhLTA4H, LTB4 by immunoassay; single determination or average of two or more; mark after value = form tested: ′ free base, ″ hydrochloride, ^ formate; read-out: IC50. An outline of the steps: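 LTB4 formation, measured by enzyme immunoassay, was the read-out. The enzyme, recombinant human LTA4H expressed in Sf-9 insect cells (10 ng per reaction), was exposed to compound for 10 min at room temperature before hydrolysed-ester LTA4 substrate was added for 30 min. Enzyme-free negatives were included.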

Experiment [2] deals with LTB4 production in murine blood (LTA4H). Put plainly: LTB4 production by calcium ionophore-stimulated murine blood for LTA4H inhibitor activity. The format is cell-based, CD-1 mice. The following applies: Mus musculus; murine blood diluted 1 in 15, A23187 stimulated; single determination or average; mark after value = form tested: ′ free base, ″ hydrochloride, ^ formate; read-out: IC50. A digest of the protocol: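 LTB4 was measured by ELISA in supernatants after calcium ionophore A23187 stimulation (final 7 μg/mL, 30 min, 37° C) of CD-1 mouse blood collected on heparin. Compound was preincubated with the blood for 15 min beforehand. Values come from one determination or average several.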

Counter-ions that a name gives are not always drawn.

Broadly, the IC50 is the concentration that inhibits the measured activity by half. Consider `c1ccc(CCN2CCN(Cc3coc4cc(Oc5nc6ncccc6s5)ccc34)CC2)cc1` [Example 291, 2-[3-(4-Phenethyl-piperazin-1-ylmethyl)-benzofuran-6-yloxy]-thiazolo[4,5-b]pyridine formate], for which the values for the IC50 in experiment [1] and in experiment [2] were 14 nM and 130 nM, respectively.
The like results for `CC(=O)N1[C@@H]2CC[C@H]1C[C@@H](NCc1coc3cc(Oc4nc5ncccc5s4)ccc13)C2` [Example 332, meso-endo-1-(3-{[6-(Thiazolo[4,5-b]pyridin-2-yloxy)-benzofuran-3-ylmethyl]-amino}-8-aza-bicyclo[3.2.1]oct-8-yl)-ethanone formate] were, in that order, 8 nM and 100 nM.
In the same order, the values of `OC1(c2ccc(Br)cc2)CCN(Cc2coc3cc(Oc4nc5ncccc5s4)ccc23)CC1` [Example 348, 4-(4-Bromo-phenyl)-1-[6-(thiazolo[4,5-b]pyridin-2-yloxy)-benzofuran-3-ylmethyl]-piperidin-4-ol] are 67 nM and 360 nM.
In the same order, the values of `c1ccc2sc(Oc3ccc4cc(CN5CCCCC5)[nH]c4c3)nc2c1` [Example 67, 2-(2-Piperidin-1-ylmethyl-1H-indol-6-yloxy)-benzothiazole] are 34 nM and 295 nM.
As for `c1ccc(CC2CCN(Cc3coc4cc(Oc5nc6ncccc6s5)ccc34)CC2)cc1` [Example 279, 2-[3-(4-Benzyl-piperidin-1-ylmethyl)-benzofuran-6-yloxy]-thiazolo[4,5-b]pyridine], the IC50 in experiment [1] was found to be 44 nM; in experiment [2], 130 nM.
Turning to `CN(Cc1ccccc1)Cc1cc2cc(Oc3nc4ncccc4s3)ccc2o1` [Example 114, Benzyl-methyl-[5-(thiazolo[4,5-b]pyridin-2-yloxy)-benzofuran-2-ylmethyl]-amine], the IC50 in experiment [1] came to 15 nM; in experiment [2], 85 nM.
The like results for `c1cnc2nc(Oc3ccc4c(CN5CCCC6CCCCC65)coc4c3)sc2c1` (centres unmarked) [Example 267, 1-[6-(Thiazolo[4,5-b]pyridin-2-yloxy)-benzofuran-3-ylmethyl]-decahydro-quinoline formate] were, in that order, 9 nM and 44 nM.
In the same order, the values of `c1csc(CN2CCN(Cc3coc4cc(Oc5nc6ncccc6s5)ccc34)CC2)c1` [Example 325, 2-[3-(4-Thiophen-2-ylmethyl-piperazin-1-ylmethyl)-benzofuran-6-yloxy]-thiazolo[4,5-b]pyridine] are 26 nM and 78 nM.
Consider `CCCNCc1coc2cc(Oc3nc4ncccc4s3)ccc12` [Example 303, Propyl-[6-(thiazolo[4,5-b]pyridin-2-yloxy)-benzofuran-3-ylmethyl]-amine formate], for which the IC50 is 11 nM in experiment [1] and 15 nM in experiment [2].
For `FC(F)(F)C1CCN(Cc2cc3ccc(Oc4nc5ncccc5s4)cc3o2)CC1` [Example 191, 2-[2-(4-Trifluoromethyl-piperidin-1-ylmethyl)-benzofuran-6-yloxy]-thiazolo[4,5-b]pyridine formate], the IC50 in experiment [1] turned out to be 10 nM; in experiment [2] it was 833 nM.
In the same order, the values of `c1ccc2sc(Oc3ccc4cc(CN5CCCC5)[nH]c4c3)nc2c1` [Example 68, 2-(2-Pyrrolidin-1-ylmethyl-1H-indol-6-yloxy)-benzothiazole] are 20 nM and 450 nM.
The like results for `c1cnc2nc(Oc3ccc4c(CNCCN5CCOCC5)coc4c3)sc2c1` [Example 306, (2-Morpholin-4-yl-ethyl)-[6-(thiazolo[4,5-b]pyridin-2-yloxy)-benzofuran-3-ylmethyl]-amine formate] were, in that order, 95 nM and 10 nM.
The like results for `CC(=O)N1C[C@@H]2C[C@H]1CN2Cc1c[nH]c2cc(Oc3nc4ccccc4s3)ccc12` [Example 55, (1S,4S)-1-{5-[6-(Benzothiazol-2-yloxy)-1H-indol-3-ylmethyl]-2,5-diaza-bicyclo[2.2.1]hept-2-yl}-ethanone] were, in that order, 3 nM and 129 nM.
With `O=C(c1coc2cc(Oc3nc4ncccc4s3)ccc12)N1CCN(C2CCCCC2)CC1` [Example 379, (4-Cyclohexyl-piperazin-1-yl)-[6-(thiazolo[4,5-b]pyridin-2-yloxy)-benzofuran-3-yl]-methanone], the IC50 in experiment [1] is 10 nM; in experiment [2], 150 nM.
In the same order, the values of `CC(C)CNCc1coc2cc(Oc3nc4ncccc4s3)ccc12` [Example 304, Isobutyl-[6-(thiazolo[4,5-b]pyridin-2-yloxy)-benzofuran-3-ylmethyl]-amine formate] are 3 nM and 24 nM.
In the same order, the values of `O=C(C1CCOC1)N1CC2CN(Cc3coc4cc(Oc5nc6ncccc6s5)ccc34)CC2C1` (centres unmarked) [Example 354, (Tetrahydro-furan-3-yl)-{5-[6-(thiazolo[4,5-b]pyridin-2-yloxy)-benzofuran-3-ylmethyl]-hexahydro-pyrrolo[3,4-c]pyrrol-2-yl}-methanone] are 7 nM and 200 nM.
The like results for `CCOC(=O)[C@@H]1CCCN(Cc2c[nH]c3cc(Oc4nc5ccccc5s4)ccc23)C1` [Example 144, (3R)-1-[6-(Benzothiazol-2-yloxy)-1H-indol-3-ylmethyl]-piperidine-3-carboxylic acid ethyl ester] were, in that order, 78 nM and 2440 nM.
For `NC(=O)C1CCN(Cc2cc3cc(Oc4nc5ccccc5s4)ccc3o2)CC1` [Example 105, 1-[5-(Benzothiazol-2-yloxy)-benzofuran-2-ylmethyl]-piperidine-4-carboxylic acid amide], the IC50 was determined as 97 nM in experiment [1] and 488 nM in experiment [2].
The like results for `c1ccc2sc(Oc3ccc4[nH]c(CN5CCCCC5)cc4c3)nc2c1` [Example 65, 2-(2-Piperidin-1-ylmethyl-1H-indol-5-yloxy)-benzothiazole] were, in that order, 100 nM and 1110 nM.
In the same order, the values of `c1cnc2nc(Oc3ccc4c(CNC5CC5)coc4c3)sc2c1` [Example 297, Cyclopropyl-[6-(thiazolo[4,5-b]pyridin-2-yloxy)-benzofuran-3-ylmethyl]-amine] are 19 nM and 240 nM.
In the same order, the values of `c1ccc2oc(Oc3ccc4c(CN5CCCCC5)c[nH]c4c3)nc2c1` [Example 15, 2-(3-Piperidin-1-ylmethyl-1H-indol-6-yloxy)-benzooxazole] are 13 nM and 152 nM.
Regarding `CCN(CC)Cc1coc2cc(Oc3nc4ncccc4s3)ccc12` [Example 219, Diethyl-[6-(thiazolo[4,5-b]pyridin-2-yloxy)-benzofuran-3-ylmethyl]-amine], the IC50 was found to be 2 nM in experiment [1] and 20 nM in experiment [2].
The like results for `c1cnc2nc(Oc3ccc4c(CNC5CCCCC5)coc4c3)sc2c1` [Example 299, Cyclohexyl-[6-(thiazolo[4,5-b]pyridin-2-yloxy)-benzofuran-3-ylmethyl]-amine] were, in that order, 16 nM and 12 nM.
In the same order, the values of `CC(=O)N1CCN(Cc2cc3ccc(Oc4nc5ncccc5s4)cc3o2)CC1` [Example 171, 1-{4-[6-(Thiazolo[4,5-b]pyridin-2-yloxy)-benzofuran-2-ylmethyl]-piperazin-1-yl}-ethanone] are 59 nM and 280 nM.
In the same order, the values of `CC(=O)N1C[C@@H]2C[C@H]1CN2Cc1c[nH]c2cc(Oc3nc4ncccc4s3)ccc12` [Example 19, (1S,4S)-1-{5-[6-(Thiazolo[4,5-b]pyridin-2-yloxy)-1H-indol-3-ylmethyl]-2,5-diaza-bicyclo[2.2.1]hept-2-yl}-ethanone] are 2 nM and 104 nM.
As for `c1ccc2c(c1)CCN(Cc1c[nH]c3cc(Oc4nc5ccccc5s4)ccc13)C2` [Example 7, 2-[6-(Benzothiazol-2-yloxy)-1H-indol-3-ylmethyl]-1,2,3,4-tetrahydro-isoquinoline], the IC50 in experiment [1] amounted to 42 nM; in experiment [2], 476 nM.
`c1ccc(CCNCc2coc3cc(Oc4nc5ncccc5s4)ccc23)cc1` [Example 321, Phenethyl-[6-(thiazolo[4,5-b]pyridin-2-yloxy)-benzofuran-3-ylmethyl]-amine formate]: the IC50 was 40 nM in experiment [1] and 51 nM in experiment [2].
In the same order, the values of `FC1(F)CN(Cc2coc3cc(Oc4nc5ncccc5s4)ccc23)C1` [Example 316, 2-[3-(3,3-Difluoro-azetidin-1-ylmethyl)-benzofuran-6-yloxy]-thiazolo[4,5-b]pyridine] are 29 nM and 120 nM.
